Assay [1] deals with 621-102 (TSC2-deficient). Put plainly: relative viability vs DMSO; higher = less cytotoxic. The conditions noted are these: serum: 10% FBS, 72 h.
Assay [2] concerns 621-103 (TSC2-rescued). The assay is described as above. Conditions: serum: 10% FBS, 72 h.

Where a name gives a salt, the structure may show the parent alone. ± gives the standard error.
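Further: immortalized renal angiomyolipoma cells stably carrying empty vector or TSC2, dosed in 384-well plates in DMEM, viability normalized to vehicle-treated wells within each plate.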

For `Nc1nc(=O)n([C@@H]2CS[C@H](CO)O2)cc1F` [Emtricitabine], the relative viability in assay [1] (0.0001 µM) was 92.1 ± 2.5%; in assay [1] (0.001 µM), 90.4 ± 1.3%; in assay [1] (0.01 µM), 95.4 ± 1%; in assay [1] (0.1 µM), 88.7 ± 4.1%; in assay [1] (1 µM), 92 ± 9.3%; in assay [1] (10 µM) it was 83.5 ± 6.5%. For the same compound, the relative viability in assay [2] (0.0001 µM) turned out to be 106 ± 1.1%; in assay [2] (0.001 µM) it was 110 ± 6.2%; in assay [2] (0.01 µM), 101 ± 4.7%; in assay [2] (0.1 µM), 105 ± 2.6%; in assay [2] (1 µM) it was 100 ± 3.7%; in assay [2] (10 µM), 98.4 ± 1.5%.
As for `CCOC(=O)[C@H](CCc1ccccc1)N[C@@H](C)C(=O)N1CCC[C@H]1C(=O)O` [Enalapril Maleate], the relative viability was 103 ± 1.4% in assay [1] (0.0001 µM); 92.6 ± 3.4% in assay [1] (0.001 µM); 101.9 ± 0.59% in assay [1] (0.01 µM); 101 ± 3.5% in assay [1] (0.1 µM); 105 ± 4.1% in assay [1] (1 µM); 100.5 ± 0.3% in assay [1] (10 µM). Moreover, the relative viability in assay [2] (0.0001 µM) is 99 ± 1.8%; in assay [2] (0.001 µM) it was 100 ± 2.9%; in assay [2] (0.01 µM), 89.7 ± 10%; in assay [2] (0.1 µM), 100 ± 1.5%; in assay [2] (1 µM), 99.6 ± 0.35%; in assay [2] (10 µM), 103 ± 2.4%.
For the compound `C[C@H](N[C@@H](CCc1ccccc1)C(=O)O)C(=O)N1CCC[C@H]1C(=O)O` [Enalaprilat], the relative viability in assay [1] (0.0001 µM) came to 97.6 ± 3.3%; in assay [1] (0.001 µM) it was 100 ± 4.3%; in assay [1] (0.01 µM), 96.26 ± 0.64%; in assay [1] (0.1 µM), 98.48 ± 0.16%; in assay [1] (1 µM), 95.91 ± 0.29%; in assay [1] (10 µM), 101.3 ± 0.23%. Besides, the relative viability was 101 ± 4% in assay [2] (0.0001 µM); 101.1 ± 0.31% in assay [2] (0.001 µM); 95.29 ± 0.25% in assay [2] (0.01 µM); 98.36 ± 0.18% in assay [2] (0.1 µM); 101 ± 2.5% in assay [2] (1 µM); 96.34 ± 0.17% in assay [2] (10 µM).
On to `Cn1cc(C2=C(c3cn(C4CCN(Cc5ccccn5)CC4)c4ccccc34)C(=O)NC2=O)c2ccccc21` [Enzastaurin], for which the relative viability in assay [1] (0.0001 µM) was found to be 110 ± 3%; in assay [1] (0.001 µM), 114 ± 1.6%; in assay [1] (0.01 µM), 107 ± 1.7%; in assay [1] (0.1 µM), 104 ± 2.2%; in assay [1] (1 µM), 106 ± 4.1%; in assay [1] (10 µM), 98.6 ± 6.9%. Besides, the relative viability in assay [2] (0.0001 µM) was 104.1 ± 0.6%; in assay [2] (0.001 µM), 99.64 ± 0.22%; in assay [2] (0.01 µM), 102 ± 1.3%; in assay [2] (0.1 µM), 99.2 ± 0.55%; in assay [2] (1 µM) it was 102.1 ± 0.61%; in assay [2] (10 µM) it was 95.6 ± 1.9%.
Take `CNC[C@H](O)c1ccc(O)c(O)c1` [Epinephrine bitartrate]: the relative viability in assay [1] (0.0001 µM) worked out at 119 ± 1.4%; in assay [1] (0.001 µM), 118 ± 1.5%; in assay [1] (0.01 µM), 105 ± 4%; in assay [1] (0.1 µM), 101 ± 2.4%; in assay [1] (1 µM), 103 ± 1.3%; in assay [1] (10 µM) it was 100 ± 1.5%. The relative viability in assay [2] (0.0001 µM) is 102 ± 2.1%; in assay [2] (0.001 µM), 95.4 ± 4.3%; in assay [2] (0.01 µM) it was 93.4 ± 4.4%; in assay [2] (0.1 µM), 92.99 ± 0.3%; in assay [2] (1 µM), 96 ± 1.2%; in assay [2] (10 µM), 95.31 ± 0.25%.
Regarding `C/C(=C\c1csc(C)n1)[C@@H]1C[C@@H]2O[C@@H]2CCC[C@H](C)[C@H](O)[C@@H](C)C(=O)C(C)(C)[C@@H](O)CC(=O)O1` [Epothilone A], the relative viability in assay [1] (0.0001 µM) worked out at 63.5 ± 3%; in assay [1] (0.001 µM), 47 ± 4%; in assay [1] (0.01 µM), 31.1 ± 0.38%; in assay [1] (0.1 µM), 27.3 ± 1.1%; in assay [1] (1 µM) it was 30.4 ± 0.53%; in assay [1] (10 µM) it was 34.2 ± 0.53%. Moreover, the relative viability came to 87.3 ± 1.9% in assay [2] (0.0001 µM); 59.1 ± 2.4% in assay [2] (0.001 µM); 44 ± 1.4% in assay [2] (0.01 µM); 30.8 ± 0.67% in assay [2] (0.1 µM); 26.7 ± 0.62% in assay [2] (1 µM); 50.59 ± 0.26% in assay [2] (10 µM).
For `C/C(=C\c1csc(C)n1)[C@@H]1C[C@@H]2O[C@]2(C)CCC[C@H](C)[C@H](O)[C@@H](C)C(=O)C(C)(C)[C@@H](O)CC(=O)O1` [Epothilone B (EPIO906)], the relative viability in assay [1] (0.0001 µM) was determined as 29.4 ± 1.8%; in assay [1] (0.001 µM), 29.3 ± 0.11%; in assay [1] (0.01 µM), 27.3 ± 1.2%; in assay [1] (0.1 µM), 32.2 ± 1.6%; in assay [1] (1 µM) it was 35.2 ± 2.2%; in assay [1] (10 µM), 37.6 ± 1.2%. Moreover, the relative viability amounted to 56.73 ± 0.32% in assay [2] (0.0001 µM); 48.3 ± 0.41% in assay [2] (0.001 µM); 38.2 ± 1% in assay [2] (0.01 µM); 35.28 ± 0.27% in assay [2] (0.1 µM); 48.9 ± 1.2% in assay [2] (1 µM); 60.1 ± 1.1% in assay [2] (10 µM).

Values taken from the supplement of paper PMC8960247.
